Values of other authors in patent US6191117A, “Methods of producing weight loss and treatment of obesity” (priority 2000, dated 2001).

Legend:
epileptic patients [1] = test system: epileptic patients
[2] = test system: patients treated for epilepsy
epileptic patients [3] = conditions: human, in vivo

SMILES: NC(=O)OCC(COC(N)=O)c1ccccc1 [FBM]
- action on GABA (GABA receptor): facilitation of the GABA receptor
- interaction at L-type calcium channels (L-type calcium channels): an interaction at the L-type calcium channels
- aplastic anemia and hepatic failure, 1994 reports (epileptic patients [1]; 1994 reports): causing aplastic anemia and hepatic failure
- thrombocytopenia and neutropenia (epileptic patients [1]; add-on therapy, Lennox-Gestalt Syndrome, prior to FDA approval): Several mild cases of thrombocytopenia and neutropenia
- aplastic anemia or hepatic dysfunction after FDA warning (epileptic patients [1]; adjunctive FBM, refractory epilepsy, serum levels monitored): No cases of aplastic anemia or hepatic dysfunction
- safety of long usage (epileptic patients [1]; adjunctive therapy, at least one year): relatively safe after usage for at least one year
- aplastic anemia or hepatic dysfunction prior to approval (epileptic patients [1]; prior to drug approval): no reported cases of aplastic anemia or hepatic dysfunction
- aplastic anemia attributable to FBM monotherapy (epileptic patients [1]; recent analysis): only several cases of aplastic anemia
- drug interactions (epileptic patients [1]; with other antiepileptic drugs): elevation of dilantin, depakote, phenobarbitol levels and the toxic epoxide metabolite of tegretol
- weight loss ([2]; FBM monotherapy, non-obese patients): 5%
- course of weight loss ([2]; add-on therapy, partial epilepsy, non-obese patients): transient and returned to baseline after twenty weeks
- anorexia and weight loss ([2]; patients treated for epilepsy): induce anorexia and weight loss
- action on sodium channel (sodium channel): modulation of the Na++ channel conductance
- activity at the kainate/AMPA receptor (kainate/AMPA receptor): interaction at the kainate/AMPA receptor
- cognition and fine motor function (epileptic patients [3]): increase both cognition and fine motor function
- activity at the NMDA receptor (NMDA receptor): glycine site NMDA antagonist
